Data reported in patent US7507760B2, “N-type calcium channel blockers” (Neuromed Pharmaceuticals Ltd., priority 2004, dated 2009).
Read-outs that look alike come from different tables or passages of the source.

Tests used:
[1] = target: T1, rat brain N-type calcium channel subunits (α1B+α2δ+β1b cDNA subunits) (Rattus norvegicus, UniProt Q02294); experiment: N-type calcium channel block, whole cell patch clamp in HEK 293 cells; format: cell-based; conditions: holding potential −80 mV to +10 mV, 5 mM BaCl2
T1 construct: expressed in transfected cells; host or cells: HEK 293
Description: Normalized dose-response curves were fit (Sigmaplot 4.0, SPSS Inc., Chicago, Ill.) by the Hill equation to determine IC50 values. Steady-state inactivation curves were plotted as the normalized test pulse amplitude following 5 s inactivating prepulses at +10 mV increments. Inactivation curves were fit (Sigmaplot 4.0) with the Boltzman equation, Ipeak (normalized)=1/(1+exp((V-Vh)z/25.6)), where V and Vh are the conditioning and half inactivation potentials, respectively, and z is the slope factor.
The methods of Example 11 were followed with slight modifications as will be apparent from the description below.
N-type calcium channel blocking activity was assayed in human embryonic kidney cells, HEK 293, stably transfected with the rat brain N-type calcium channel subunits (α1B+α2δ+β1b cDNA subunits). Briefly, cells were cultured in Dulbecco's modified eagle medium (DMEM) supplemented with 10% fetal bovine serum, 200 U/ml penicillin and 0.2 mg/ml streptomycin at 37° C. with 5% CO2. At 85% confluency, cells were split with 0.25% trypsin/1 mM EDTA and plated at 10% confluency on glass coverslips. At 12 hours the medium was. replaced and the cells transfected using a standard calcium phosphate protocol and the appropriate calcium channel cDNAs. Fresh DMEM was supplied and the cells transferred to 28° C./5% CO2. Cells were incubated for 1 to 2 days to whole cell recording.
Whole cell patch clamp experiments were performed using an Axopatch 200B amplifier (Axon Instruments, Burlingame, Calif.) linked to a personal computer equipped with pCLAMP software. The external and internal recording solutions contained, respectively, 5 mM BaCl2, 10 mM MgCl2, 10 mM HEPES, 40 mM TEACl, 10 mM glucose, 87.5 mM CsCl (pH 7.2) and 108 mM CsMS, 4 mM MgCl2, 9 mM EGTA, 9 mM HEPES (pH 7.2). Currents were typically elicited from a holding potential of −80 mV to +10 mV using Clampex software (Axon Instruments). Typically, currents were first elicited with low frequency stimulation (0.067 Hz) and allowed to stabilize prior to application of the compounds. The compounds were then applied during the low frequency pulse trains for two to three minutes to assess tonic block, and subsequently the pulse frequency was increased to 0.2 Hz to assess frequency dependent block. Data were analyzed using Clampfit (Axon Instruments) and SigmaPlot 4.0 (Jandel Scientific).

[2] = target: T2, human α1G T-type channels (Homo sapiens, UniProt O43497); experiment: Block of α1G T-type channels, whole-cell patch clamp in HEK cells; format: cell-based; conditions: test pulse −40 mV
T2 construct: expressed in transfected cells
Description: Standard patch-clamp techniques were employed to identify blockers of T-type currents. Briefly, previously described HEK cell lines stably expressing human α1G T-type channels were used for all the recordings (passage #: 4-20, 37° C., 5% CO2). To obtain T-type currents, plastic dishes containing semi-confluent cells were positioned on the stage of a ZEISS AXIOVERT S100 microscope after replacing the culture medium with external solution (Table 3). Whole-cell patches were obtained using pipettes (borosilicate glass with filament, O.D.: 1.5 mm, I.D.: 0.86 mm, 10 cm length), fabricated on a SUTTER P-97 puller with resistance values of ˜5 MΩ (Table 4 ).
T-type currents were reliably obtained by using two voltage protocols: “non-inactivating”, and “inactivation”. In the non-inactivating protocol, the holding potential is set at −110 mV and with a pre-pulse at −100 mV for 1 second prior to the test pulse at −40 mV for 50 ms. In the inactivation protocol, the pre-pulse is at approximately −85 mV for 1 second, which inactivates about ^15% of the T-type channels.
Test compounds were dissolved in external solution, 0.1-0.01% DMSO. After ˜10 min rest, they were applied by gravity close to the cell using a WPI microfil tubing. The “non-inactivated” pre-pulse was used to examine the resting block of a compound. The “inactivated” protocol was employed to study voltage-dependent block. However, the initial data shown below were mainly obtained using the non-inactivated protocol only. IC50 values are shown for various compounds of the invention in Table 5.

[3] = frequency dependent block, pulse frequency 0.2 Hz, read-out: IC50 at 0.2 Hz
[4] = tonic block, low frequency stimulation 0.067 Hz, read-out: IC50 at 0.067 Hz
[5] = −80 mV (inactivation protocol), read-out: IC50 at −80 mV
[6] = −100 mV (non-inactivating protocol), read-out: IC50 at −100 mV

T1 sequence (Q02294 whole entry): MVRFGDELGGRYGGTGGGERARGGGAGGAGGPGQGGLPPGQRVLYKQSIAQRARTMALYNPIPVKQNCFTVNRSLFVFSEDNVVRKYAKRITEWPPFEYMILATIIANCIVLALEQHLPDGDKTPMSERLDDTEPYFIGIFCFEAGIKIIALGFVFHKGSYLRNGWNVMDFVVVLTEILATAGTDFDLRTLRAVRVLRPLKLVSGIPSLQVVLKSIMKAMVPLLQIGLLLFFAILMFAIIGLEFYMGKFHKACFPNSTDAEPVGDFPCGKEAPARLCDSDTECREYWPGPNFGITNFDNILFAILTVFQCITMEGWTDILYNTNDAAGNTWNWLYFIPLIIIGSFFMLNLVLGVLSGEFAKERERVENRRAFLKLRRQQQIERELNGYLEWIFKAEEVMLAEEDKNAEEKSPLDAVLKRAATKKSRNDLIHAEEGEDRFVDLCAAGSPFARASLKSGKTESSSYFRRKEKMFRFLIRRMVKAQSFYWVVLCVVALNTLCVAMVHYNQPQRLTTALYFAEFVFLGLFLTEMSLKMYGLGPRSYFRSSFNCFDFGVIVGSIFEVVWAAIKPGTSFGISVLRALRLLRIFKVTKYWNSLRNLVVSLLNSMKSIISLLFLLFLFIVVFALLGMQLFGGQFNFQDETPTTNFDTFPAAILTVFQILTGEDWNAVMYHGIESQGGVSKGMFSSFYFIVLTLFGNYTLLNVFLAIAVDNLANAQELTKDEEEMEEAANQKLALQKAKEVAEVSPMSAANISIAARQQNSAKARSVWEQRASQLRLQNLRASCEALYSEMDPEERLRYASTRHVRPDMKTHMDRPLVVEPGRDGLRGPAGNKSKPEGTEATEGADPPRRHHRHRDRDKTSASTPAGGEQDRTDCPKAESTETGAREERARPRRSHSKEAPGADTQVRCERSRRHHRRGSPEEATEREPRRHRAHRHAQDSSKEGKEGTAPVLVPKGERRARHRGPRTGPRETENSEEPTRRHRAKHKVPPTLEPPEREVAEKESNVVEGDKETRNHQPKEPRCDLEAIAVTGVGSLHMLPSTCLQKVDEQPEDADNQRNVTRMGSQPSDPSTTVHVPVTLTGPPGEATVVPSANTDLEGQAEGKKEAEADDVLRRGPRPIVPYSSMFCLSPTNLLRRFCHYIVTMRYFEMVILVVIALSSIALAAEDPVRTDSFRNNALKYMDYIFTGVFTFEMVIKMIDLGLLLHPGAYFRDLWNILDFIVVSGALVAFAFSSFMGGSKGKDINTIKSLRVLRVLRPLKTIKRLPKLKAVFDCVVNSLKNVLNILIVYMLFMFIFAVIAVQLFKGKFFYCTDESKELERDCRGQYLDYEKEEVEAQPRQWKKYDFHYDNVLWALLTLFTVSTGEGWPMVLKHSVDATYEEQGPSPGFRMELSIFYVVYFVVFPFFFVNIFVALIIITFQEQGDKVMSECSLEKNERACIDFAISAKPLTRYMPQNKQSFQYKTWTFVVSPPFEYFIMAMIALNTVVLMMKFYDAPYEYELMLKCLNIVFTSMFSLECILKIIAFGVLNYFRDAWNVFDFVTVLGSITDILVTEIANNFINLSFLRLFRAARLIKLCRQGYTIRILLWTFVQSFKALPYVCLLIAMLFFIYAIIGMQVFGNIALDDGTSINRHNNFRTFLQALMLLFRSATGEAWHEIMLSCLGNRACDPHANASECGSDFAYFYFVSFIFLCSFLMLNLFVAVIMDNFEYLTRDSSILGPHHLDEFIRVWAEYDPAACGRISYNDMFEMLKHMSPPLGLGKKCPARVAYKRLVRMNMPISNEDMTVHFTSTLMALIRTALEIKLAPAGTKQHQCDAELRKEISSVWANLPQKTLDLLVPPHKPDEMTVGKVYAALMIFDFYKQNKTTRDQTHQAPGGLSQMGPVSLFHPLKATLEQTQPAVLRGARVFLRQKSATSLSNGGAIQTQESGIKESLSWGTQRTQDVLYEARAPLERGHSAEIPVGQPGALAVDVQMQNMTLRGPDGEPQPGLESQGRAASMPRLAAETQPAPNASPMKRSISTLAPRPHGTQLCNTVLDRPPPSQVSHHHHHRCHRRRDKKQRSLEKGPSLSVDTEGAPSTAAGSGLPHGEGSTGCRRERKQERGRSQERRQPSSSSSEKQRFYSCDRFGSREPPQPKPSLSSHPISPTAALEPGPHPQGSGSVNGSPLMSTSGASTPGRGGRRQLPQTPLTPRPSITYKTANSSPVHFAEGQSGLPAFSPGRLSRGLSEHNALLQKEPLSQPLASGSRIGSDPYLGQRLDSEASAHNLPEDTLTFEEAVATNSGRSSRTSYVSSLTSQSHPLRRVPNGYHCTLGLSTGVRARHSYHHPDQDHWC
T1 sequence (P54290 25-944 partner limits assumed): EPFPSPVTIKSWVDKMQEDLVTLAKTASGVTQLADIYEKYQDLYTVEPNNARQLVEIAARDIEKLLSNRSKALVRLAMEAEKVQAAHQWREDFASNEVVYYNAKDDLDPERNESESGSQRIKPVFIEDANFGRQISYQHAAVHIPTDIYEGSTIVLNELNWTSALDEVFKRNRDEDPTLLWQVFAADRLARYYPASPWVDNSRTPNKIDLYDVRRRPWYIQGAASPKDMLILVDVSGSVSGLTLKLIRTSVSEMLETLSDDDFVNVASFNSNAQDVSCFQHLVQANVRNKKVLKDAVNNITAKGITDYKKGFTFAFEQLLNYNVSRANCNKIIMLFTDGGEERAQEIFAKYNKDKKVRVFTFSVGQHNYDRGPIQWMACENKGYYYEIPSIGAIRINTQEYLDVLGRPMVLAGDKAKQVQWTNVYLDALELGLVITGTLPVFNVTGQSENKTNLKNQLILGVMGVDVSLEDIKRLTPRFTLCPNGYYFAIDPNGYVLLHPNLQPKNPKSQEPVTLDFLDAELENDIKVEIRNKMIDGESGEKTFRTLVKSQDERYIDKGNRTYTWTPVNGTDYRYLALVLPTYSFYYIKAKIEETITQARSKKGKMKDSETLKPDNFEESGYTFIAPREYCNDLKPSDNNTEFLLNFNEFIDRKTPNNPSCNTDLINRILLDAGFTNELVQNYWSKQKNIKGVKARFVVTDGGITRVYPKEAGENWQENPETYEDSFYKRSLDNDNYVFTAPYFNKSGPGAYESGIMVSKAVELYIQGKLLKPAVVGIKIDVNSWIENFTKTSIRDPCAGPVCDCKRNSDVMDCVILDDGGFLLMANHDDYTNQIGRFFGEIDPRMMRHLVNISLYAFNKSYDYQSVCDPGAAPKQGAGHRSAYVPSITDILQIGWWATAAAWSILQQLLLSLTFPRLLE
T1 sequence (P54290 945-1091 partner limits assumed): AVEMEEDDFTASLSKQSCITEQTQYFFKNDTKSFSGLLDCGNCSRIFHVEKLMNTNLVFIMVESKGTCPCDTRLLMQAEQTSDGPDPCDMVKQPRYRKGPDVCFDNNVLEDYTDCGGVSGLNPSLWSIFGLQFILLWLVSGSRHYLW
T1 sequence (P54283 whole entry partner): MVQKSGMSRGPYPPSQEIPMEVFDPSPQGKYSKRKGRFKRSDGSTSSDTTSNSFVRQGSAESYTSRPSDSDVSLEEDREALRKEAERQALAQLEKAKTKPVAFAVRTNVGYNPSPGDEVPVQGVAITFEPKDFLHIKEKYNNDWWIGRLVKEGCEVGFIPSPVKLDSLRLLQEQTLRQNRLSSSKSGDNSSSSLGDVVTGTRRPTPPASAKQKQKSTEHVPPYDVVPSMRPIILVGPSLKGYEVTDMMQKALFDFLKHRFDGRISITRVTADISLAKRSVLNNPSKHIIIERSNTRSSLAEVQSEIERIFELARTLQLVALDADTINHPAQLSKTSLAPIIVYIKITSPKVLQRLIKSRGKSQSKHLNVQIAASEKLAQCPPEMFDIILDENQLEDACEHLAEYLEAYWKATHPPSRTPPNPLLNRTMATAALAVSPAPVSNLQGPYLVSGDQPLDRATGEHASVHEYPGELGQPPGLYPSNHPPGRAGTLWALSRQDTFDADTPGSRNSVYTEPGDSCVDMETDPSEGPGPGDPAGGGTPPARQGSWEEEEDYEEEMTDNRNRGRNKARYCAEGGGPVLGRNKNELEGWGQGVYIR

| SMILES | IC50 [1, 3] | IC50 [1, 4] | IC50 [2, 5] | IC50 [2, 6] | IC50 at −80 mV ([2]; −80 mV (inactivation protocol)) | IC50 at −100 mV ([2]; −100 mV (non-inactivating protocol)) |
| --- | --- | --- | --- | --- | --- | --- |
| CN(C(=O)CC(c1ccccc1)c1ccccc1)[C@@H]1CCN(Cc2ccccn2)C1 [Compound P9, (R)-N-Methyl-3,3-diphenyl-N-(1-pyridin-2-ylmethyl-pyrrolidin-3-yl)-propionamide] | 617 nM | 1300 nM | 160 to 2400 nM | 150 to 4500 nM | – | – |
| CN(C(=O)CC(c1ccccc1)c1ccccc1)[C@H]1CCN(Cc2ccncc2)C1 [Compound P13, (S)-N-Methyl-3,3-diphenyl-N-(1-pyridin-4-ylmethyl-pyrrolidin-3-yl)-propionamide] | 471 nM | 913 nM | 488 nM | 5000 nM | – | – |
| CN(C(=O)NC(c1ccccc1)c1ccccc1)[C@H]1CCN(C(c2ccccc2)c2ccccc2)C1 [Compound P16, (S)-3-Benzhydryl-1-(1-benzhydryl-pyrrolidin-3-yl)-1-methyl-urea] | 601 nM | 1030 nM | 926 nM | 2200 nM | – | – |
| CN(C(=O)CC(c1ccccc1)c1ccccc1)[C@@H]1CCN(Cc2cccnc2)C1 [Compound P8, (R)-N-Methyl-3,3-diphenyl-N-(1-pyridin-3-ylmethyl-pyrrolidin-3-yl)-propionamide] | 987 nM | 3000 nM | – | – | No block | No block |
| CN(C(=O)CC(c1ccccc1)c1ccccc1)[C@@H]1CCN(C(c2ccccc2)c2ccncc2)C1 (stereo partly drawn) [Compound P10, (R)-N-Methyl-3,3-diphenyl-N-[1-(phenyl-pyridin-4-yl-methyl)-pyrrolidin-3-yl]-propionamide] | 520 nM | 714 nM | 882 nM | 3460 nM | – | – |

Now those with a lower IC50 [1, 3], led by results:

| IC50 [1, 3] | IC50 [1, 4] | IC50 [2, 5] | IC50 [2, 6] | IC50 at −80 mV ([2]; −80 mV (inactivation protocol)) | IC50 at −100 mV ([2]; −100 mV (non-inactivating protocol)) | SMILES |
| --- | --- | --- | --- | --- | --- | --- |
| 365 nM | 638 nM | 455 nM | 1160 nM | – | – | CN(C(=O)CC(c1ccccc1)c1ccccc1)[C@H]1CCN(C(c2ccccc2)c2ccccc2)C1 [Compound P6, (S)-N-(1-Benzhydryl-pyrrolidin-3-yl)-N-methyl-3,3-diphenyl-propionamide] |
| 302 nM | 386 nM | 374 nM | 1800 nM | – | – | CN(C(=O)CC(c1ccccc1)c1ccccc1)[C@@H]1CCN(C(c2ccccc2)c2cccnc2)C1 (stereo partly drawn) [Compound P11, (R)-N-Methyl-3,3-diphenyl-N-[1-(phenyl-pyridin-3-yl-methyl)-pyrrolidin-3-yl]-propionamide] |
| 285 nM | 362 nM | 335 nM | 647 nM | – | – | CN(C(=O)CC(c1ccccc1)c1ccccc1)[C@@H]1CCN(C(c2ccccc2)c2ccccn2)C1 (stereo partly drawn) [Compound P12, (R)-N-Methyl-3,3-diphenyl-N-[1-(phenyl-pyridin-2-yl-methyl)-pyrrolidin-3-yl]-propionamide] |
| 252 nM | 366 nM | 99 nM | 609 nM | – | – | CN(C(=O)CN(c1ccccc1)c1ccccc1)[C@H]1CCN(C(c2ccccc2)c2ccccc2)C1 [Compound P14, (S)-N-(1-Benzhydryl-pyrrolidin-3-yl)-2-diphenylamino-N-methyl-acetamide] |
| 216 nM | 287 nM | 115 nM | 692 nM | – | – | CN(CC(=O)N(c1ccccc1)c1ccccc1)[C@H]1CCN(C(c2ccccc2)c2ccccc2)C1 [Compound P15, (S)-2-[(1-Benzhydryl-pyrrolidin-3-yl)-methyl-amino]-N,N-diphenyl-acetamide] |
| 44 nM | 112 nM | 364 nM | 910 nM | – | – | CN(C(=O)CC(c1ccccc1)c1ccccc1)[C@@H]1CCN(C(c2ccccc2)c2ccccc2)C1 [Compound P3, (R)-N-(1-Benzhydryl-pyrrolidin-3-yl)-N-methyl-3,3-diphenyl-propionamide] |
